# Results from patent EP0470144B1, “BETA-HYDROXAMATE D-ASPARTIC ACID FOR TREATMENT OF VIRAL INFECTIONS AND TUMOURS” (priority 1989, dated 1990).
# Legend:
# [1] = molecular target: T1, transcriptase inverse (RT) du FLV (Friend murine leukemia virus, UniProt P26810); assay: Reverse transcriptase (RT) activity of highly purified FLV, poly A-oligo dT substrate; type: biochemical; conditions: at concentrations giving the anti-retroviral effect in cell culture
# T1 construct: comme source de RT une préparation de FLV hautement purifié; from tissue; host or cells: highly purified FLV virus preparation (virions)
# Excerpt: La transcriptase inverse étant la cible de divers agents anti-rétroviraux, il est intéressant de tester l'effet du DAH sur l'activité transcriptase inverse (RT) du FLV. Cet essai a été effectué en utilisant comme source de RT une préparation de FLV hautement purifié, et comme substrat du poly A-oligo dT. Les substrats ont été introduits dans le milieu réactionnel dans l'ordre suivant : DAH aux concentrations désirées, virus purifié, polyA-oligo dT, dTTP + ³HdTTP.
# HIV = HIV replication in lymphocyte cultures (infected with purified virus, or coculture of AIDS patients' and normal lymphocytes), reverse transcriptase activity in supernatant; type: cell-based; conditions: DAH treatment 72 h (J0 to J3), RT followed 22 days; dose-dependent; 0,5-2 mM
# Excerpt: Cette inhibition est dose-dépendante. Les essais ont d'abord porté sur des lymphoytes de donneurs sains (Figures 1 et 2). On a pu mettre en évidence cette activité sur deux modèles de réplication du HIV : a) lymphocytes normaux infectés par le virus purifié et b) coculture des lymphocytes des malades du SIDA et de lymphocytes normaux. On a mesuré l'activité transcriptase inverse pendant 22 jours dans le surnageant de cultures cellulaires comme critère de prolifération virale. Le traitement avec le DAH a duré 72 heures de J₀ à J₃ de la manipulation (Figures 3, 4 et 5). […] Par contre, le DAH s'est montré plus toxique vis-à-vis des lymphocytes infectés par le virus du SIDA (Figures 6 et 7).
# Effet du traitement par le DAH durant trois jours sur la production de transcriptase inverse virale par une coculture de lymphocytes des malades du SIDA et de lymphocytes normaux.
# (●) absence de DAH (témoin) (o) concentration en DAH = 1 mM (□) concentration en DAH = 1,5 mM • . En abscisses : temps de croissance des cultures après inoculation du DAH (en jours) • . En ordonnées : activité transcriptase inverse (en CPM/million de cellules)
# Effet du traitement par le DAH durant trois jours, sur la production de transcriptase inverse virale d'une culture de lymphocytes infectés par du virus purifié. […]
# leucémie P388 = assay: Antitumour activity in the P388 leukaemia model, survival; type: in vivo, souris B6D2F1; conditions: for Nombre d'animaux survivants: at 30 days
# Excerpt: L'activité antitumorale du DAH a été aussi étudiée sur deux autres modèles murins : le lymphome L5178Y et la leucémie P388.
# Les cellules de la leucémie P388 sont maintenues par passage intrapéritonéaux chez la souris DBA/2 et injectées, pour les essais, à la dose de […] par souris sur la souris B6D2F1.
# [2] = Pre-clinical pharmacology: DAH levels in serum and urine after intraperitoneal injection; type: in vivo, souris B6D2F1; conditions: 3 g/kg intraperitoneal
# Excerpt: Le DAH a été dosé dans les sérums et les urines de souris B6D2F1 âgées de 8 semaines, ayant reçu une injection intrapéritonéale de DAH de 3 g/kg. Le DAH a été dosé par spectrophotométrie par mise en évidence du complexe Fe3+- hydroxamate à 550 nm.
# [3] = Toxicity in dogs (NCI recommendations), intravenous administration; type: in vivo, chiens Beagle
# Excerpt: En suivant les recommandations du National Cancer Institute (NCI), on a déterminé : a) la dose maximale non toxique, b) la dose toxique faible, c) la dose maximale toxique non léthale, d) la dose léthale.
# Ces études ont été réalisées sur des chiens Beagle âgés de six à sept mois et pesant 6,5 à 7,5 kg. Pour mettre en évidence les effets toxiques du DAH, on a mesuré des paramètres cliniques, morphologiques, biochimiques et hématologiques.
# L'évaluation de la fréquence cardiaque, l'électrocardiogramme, la pression artérielle (mesurée par cathétérisme intra-artériel), et la fréquence respiratoire ont été mesurées chez des chiens anesthésiés par l'alphachloralose.
# virus de Friend = assay: Survival of mice infected with Friend virus; type: in vivo, souris DBA/2
# Excerpt: Dans d'autres essais, le virus a été maintenu par passages successif intrapéritonéaux chez la souris DBA/2. Cet entretien a été fait à partir de la rate de l'animal tous les 21 jours. L'activité du DAH a été évaluée en comparant les durées de survie des animaux à qui est injecté le virus, avec ou sans DAH. Le traitement a commencé trois jours après l'infection virale car on considère qu'il faut ce laps de temps pour qu'il y ait des séquences du virus dans le génome des précurseurs érythroïdes de la souris infectée. Après avoir fait varier le nombre d'injections journalières et la durée du traitement pour une dose donnée, il a été établi que 3 injections de 1g/kg/dose de DAH durant les 10 premiers jours et 2 injections de 1g/kg/dose de DAH pendant les 20 jours suivants, produisent un T/C de 239 %. Les résultats sont rapportés dans le tableau suivant : Tableau 2
smiles,measurement,setting,value
"N[C@@H](CC(=O)NO)C(=O)O [DAH, D-acide aspartique β-hydroxamate]",effet sur l'activité RT,[1],aucun effet
same,multiplication virale du HIV (activité transcriptase inverse),HIV,inhibe de manière totale
same,T/Cx100,"leucémie P388; 1,5 g/kg x4/j, days 1,2,3",155%
same,T/Cx100,"leucémie P388; 1,5 g/kg x 4/j, days 1,2,3,4,5",190%
same,Nombre d'animaux survivants,"leucémie P388; 1,5 g/kg x 4/j, days 1,2,3,4,5",0/5
same,Nombre d'animaux survivants,"leucémie P388; 1,5 g/kg x4/j, days 1,2,3",0/5
same,modification structurale du DAH éliminé par voie urinaire,[2],aucune modification structurale
same,pic plasmatique moyen,[2],6 mg/mL
same,pic urinaire,[2],220 mg/mL
same,temps du pic plasmatique,[2],20 min
same,élimination urinaire prolongée sur,[2],24 heures
same,temps du pic urinaire,[2]; after injection,250 min
same,demi-vie,[2]; decrease of plasma concentration,35 min
same,nadir plaquettes,"[3]; 5 g/kg, 8th day after injection, return to pre-treatment level seven to ten days later",39 x 109 plaquettes/l
same,nadir plaquettes,"[3]; 9 g/kg, twenty-two days after injection",17 x 109 plaquettes/l
same,récupération partielle (plaquettes),"[3]; 9 g/kg, two months later",56 x 10⁹/l
same,"fréquence cardiaque, électrocardiogramme, pression artérielle, fréquence respiratoire","[3]; anaesthetised dogs, intravenous 1 to 5 g/kg",aucune modification
same,dose maximale non toxique,"[3]; dog, in vivo","2,5-3 g/kg"
same,dose toxique faible,"[3]; dog, in vivo",5 g/kg
same,dose toxique maximale non léthale,"[3]; dog, in vivo",~9 g/kg
same,toxicité de la fonction rénale ou hépatique,[3]; doses up to 9 g/kg,Aucune toxicité
same,toxicité sur les lignées granulo-monocytaires et érythrocytaires,[3]; including high doses (9 g/kg),Aucune toxicité
same,dose à partir de laquelle une toxicité sur la lignée plaquettaire a été constatée,[3]; intravenous,≥ 5 g/kg
same,Effets toxiques d'apparition immédiate,"[3]; intravenous 1 to 10 g/kg (10 % solution), during administration, with anorexia up to 24 hours",vomissements
same,tolérance à l'administration réitérée,"[3]; intravenous, two weeks, five weekly injections of 1 g/kg",aucun signe d'intolérance autre que des vomissements
same,complication rénale,"[3]; one dog, dose of more than 10 g/kg, avoided later by prehydration",précipitation des cristaux de DAH dans les tubules rénaux
same,Nombre d'animaux survivants,virus de Friend; 1 g/kg x 3/j J 1-10 then x 2/j J 11-30,5/10
same,T/Cx100,"virus de Friend; 1 g/kg x 3/j J 1-10 then x 2/j J 11-30, T/C = survival time treated/controls","239,86%"
same,Nombre d'animaux survivants,"virus de Friend; 1 g/kg x 3/j, J 1-10",0/10
same,T/Cx100,"virus de Friend; 1 g/kg x 3/j, J 1-10",193%
